Laboratory results reported in US20250171438A1 (Agios Pharmaceuticals, Inc., priority 2022, published 2025).

target: T1, human PAH with the R408W mutation (Homo sapiens, UniProt P00439, R408W); experiment: Cell Based Phenylalanine Flux Assay; settings: A375 cells expressing human R408W PAH; 24 hrs compound incubation; 13C-Tyrosine by LC-MS; average where tested multiple times; read-out: AC50
T1 construct: expressed in transfected cells
T1 sequence (P00439 1-452 R408W): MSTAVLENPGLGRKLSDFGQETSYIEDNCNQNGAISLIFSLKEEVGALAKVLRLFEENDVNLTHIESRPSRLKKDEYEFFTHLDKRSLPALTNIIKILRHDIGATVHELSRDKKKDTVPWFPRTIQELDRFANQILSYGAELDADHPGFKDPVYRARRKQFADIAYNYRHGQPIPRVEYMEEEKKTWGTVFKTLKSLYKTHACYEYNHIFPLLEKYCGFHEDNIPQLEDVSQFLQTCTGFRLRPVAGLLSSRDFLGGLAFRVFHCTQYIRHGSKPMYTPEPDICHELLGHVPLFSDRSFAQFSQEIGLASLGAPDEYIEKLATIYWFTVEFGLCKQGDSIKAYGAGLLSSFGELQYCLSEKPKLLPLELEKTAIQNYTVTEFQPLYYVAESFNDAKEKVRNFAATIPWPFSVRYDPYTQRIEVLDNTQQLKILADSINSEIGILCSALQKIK

| Compound | AC50 |
| --- | --- |
| (R)-(4-bromothiazol-5-yl)(4-(4-fluorobenzo[d]thiazol-2-yl)-6,7-dihydro-1H-imidazo[4,5-c]pyridin-5(4H)-yl)methanone [Example 1618] | 500 to 1000 nM |
| O=C(c1scnc1Cl)N1CCc2[nH]cnc2[C@H]1c1nc2c(F)cccc2s1 [Example 1640] | 500 to 1000 nM |
| COCCc1nc(C)c(C(=O)N2CCc3[nH]cnc3[C@@H]2c2nc3ccccc3s2)o1 [Example 1730, (R)-(4-(benzo[d]thiazol-2-yl)-1,4,6,7-tetrahydro-5H-imidazo[4,5-c]pyridin-5-yl)(2-(2-methoxyethyl)-4-methyloxazol-5-yl)methanone] | > 5000 nM |
| Cc1nc(C(F)(F)F)oc1C(=O)N1CCc2[nH]cnc2[C@@H]1c1nc2ccccc2s1 [Example 1394, (R)-(4-(benzo[d]thiazol-2-yl)-6,7-dihydro-1H-imidazo[4,5-c]pyridin-5(4H)-yl)(4-methyl-2-(trifluoromethyl)oxazol-5-yl)methanone] | 1000 to 5000 nM |
| O=C(c1cnc(-c2ccnc(C(F)(F)F)c2)s1)N1CCc2[nH]cnc2[C@@H]1c1nc2ccccc2s1 [Example 1404, (R)-(4-(benzo[d]thiazol-2-yl)-6,7-dihydro-1H-imidazo[4,5-c]pyridin-5(4H)-yl)(2-(2-(trifluoromethyl)pyridin-4-yl)thiazol-5-yl)methanone] | 1000 to 5000 nM |
| O=C(c1cncs1)N1CCc2[nH]cnc2[C@H]1c1nc2ccc(Br)cc2[nH]1 [Example 947, (S)-(4-(6-bromo-1H-benzo[d]imidazol-2-yl)-6,7-dihydro-1H-imidazo[4,5-c]pyridin-5(4H)-yl)(thiazol-5-yl)methanone] | 500 to 1000 nM |
| COCCc1nc(C)c(C(=O)N2CCc3[nH]cnc3[C@H]2c2nc3ccccc3s2)o1 [Example 1729, (S)-(4-(benzo[d]thiazol-2-yl)-1,4,6,7-tetrahydro-5H-imidazo[4,5-c]pyridin-5-yl)(2-(2-methoxyethyl)-4-methyloxazol-5-yl)methanone] | 500 to 1000 nM |
| Cc1c(-c2ncc(C(=O)N3CCc4[nH]cnc4[C@H]3c3nc4ccccc4s3)o2)cnn1C [Example 1383] | < 500 nM |
| O=C(c1nnc(-c2ccccn2)o1)N1CCc2[nH]cnc2[C@H]1c1nc2ccccc2s1 [Example 1439] | < 500 nM |
| O=C(c1nnc(-c2cnn(CC(F)(F)F)c2)o1)N1CCc2[nH]cnc2[C@H]1c1nc2c(F)cccc2s1 [Example 1844, (S)-(4-(4-fluorobenzo[d]thiazol-2-yl)-6,7-dihydro-1H-imidazo[4,5-c]pyridin-5(4H)-yl)(5-(1-(2,2,2-trifluoroethyl)-1H-pyrazol-4-yl)-1,3,4-oxadiazol-2-yl)methanone] | 500 to 1000 nM |
| O=C(c1cnn2ccccc12)N1CCc2[nH]cnc2[C@H]1c1nc2ccc(F)cc2s1 [Example 1099, (S)-(4-(6-fluorobenzo[d]thiazol-2-yl)-6,7-dihydro-1H-imidazo[4,5-c]pyridin-5(4H)-yl)(pyrazolo[1,5-a]pyridin-3-yl)methanone] | 1000 to 5000 nM |
| Cc1nc(C(C)(C)F)oc1C(=O)N1CCc2[nH]cnc2[C@@H]1c1nc2c(F)cccc2s1 [Example 1500, (R)-(4-(4-fluorobenzo[d]thiazol-2-yl)-6,7-dihydro-1H-imidazo[4,5-c]pyridin-5(4H)-yl)(2-(2-fluoropropan-2-yl)-4-methyloxazol-5-yl)methanone] | 500 to 1000 nM |
| Cc1nn(C)c(C)c1-c1ncc(C(=O)N2CCc3[nH]cnc3[C@@H]2c2nc3ccccc3s2)s1 [Example 1406, (R)-(4-(benzo[d]thiazol-2-yl)-6,7-dihydro-1H-imidazo[4,5-c]pyridin-5(4H)-yl)(2-(1,3,5-trimethyl-1H-pyrazol-4-yl)thiazol-5-yl)methanone] | 500 to 1000 nM |

Other lines, results leading:

| AC50 | Compound |
| --- | --- |
| < 500 nM | CC(C)(O)Cc1nc(C(F)F)c(C(=O)N2CCc3[nH]cnc3[C@H]2c2nc3c(F)cccc3s2)o1 [Example 2061] |
| 1000 to 5000 nM | Cc1nn(C)c(Cl)c1C(=O)N1CCc2[nH]cnc2[C@@H]1c1nc2c(F)cccc2s1 [Example 1741, (R)-(5-chloro-1,3-dimethyl-1H-pyrazol-4-yl)(4-(4-fluorobenzo[d]thiazol-2-yl)-6,7-dihydro-1H-imidazo[4,5-c]pyridin-5(4H)-yl)methanone] |
| 500 to 1000 nM | C[C@H]1CN(C(=O)c2nnc(-c3cnn(C)c3)o2)[C@H](c2nc3ccccc3s2)c2nc[nH]c21 [Example 1752, ((4S,7S)-4-(benzo[d]thiazol-2-yl)-7-methyl-6,7-dihydro-1H-imidazo[4,5-c]pyridin-5(4H)-yl)(5-(1-methyl-1H-pyrazol-4-yl)-1,3,4-oxadiazol-2-yl)methanone] |
| < 500 nM | O=C(c1oc(-c2ccccn2)nc1C(F)F)N1CCc2[nH]cnc2[C@@H]1c1nc2ccccc2s1 [Example 1796, (R)-(4-(benzo[d]thiazol-2-yl)-6,7-dihydro-1H-imidazo[4,5-c]pyridin-5(4H)-yl)(4-(difluoromethyl)-2-(pyridin-2-yl)oxazol-5-yl)methanone] |
| 1000 to 5000 nM | CC(C)(O)c1nc(CF)c(C(=O)N2CCc3[nH]cnc3[C@@H]2c2nc3c(F)cccc3s2)o1 [Example 2066, (R)-(4-(4-fluorobenzo[d]thiazol-2-yl)-6,7-dihydro-1H-imidazo[4,5-c]pyridin-5(4H)-yl)(4-(fluoromethyl)-2-(2-hydroxypropan-2-yl)oxazol-5-yl)methanone] |
| 500 to 1000 nM | Nc1cc(C(=O)N2CCc3[nH]cnc3[C@H]2c2nc3c(F)cccc3s2)n(C(F)F)n1 [Example 2053, (S)-(3-amino-1-(difluoromethyl)-1H-pyrazol-5-yl)(4-(4-fluorobenzo[d]thiazol-2-yl)-6,7-dihydro-1H-imidazo[4,5-c]pyridin-5(4H)-yl)methanone] |
| 1000 to 5000 nM | Cn1cc(C(=O)N2CCc3[nH]cnc3[C@@H]2c2nc3ccccc3s2)c(C(F)F)n1 [Example 1822, (R)-(4-(benzo[d]thiazol-2-yl)-6,7-dihydro-1H-imidazo[4,5-c]pyridin-5(4H)-yl)(3-(difluoromethyl)-1-methyl-1H-pyrazol-4-yl)methanone] |
| < 500 nM | O=C(c1oc(-c2ccc(F)cn2)nc1C(F)F)N1CCc2[nH]cnc2[C@H]1c1nc2ccccc2s1 [Example 1746] |
| 1000 to 5000 nM | Cn1nc(C(C)(C)C#N)nc1C(=O)N1CCc2[nH]cnc2[C@H]1c1nc2ccccc2s1 [Example 2045, (S)-2-(5-(4-(benzo[d]thiazol-2-yl)-4,5,6,7-tetrahydro-1H-imidazo[4,5-c]pyridine-5-carbonyl)-1-methyl-1H-1,2,4-triazol-3-yl)-2-methylpropanenitrile] |
| 1000 to 5000 nM | O=C(c1nnc(-c2cnn(CC(F)(F)F)c2)o1)N1CCc2[nH]cnc2[C@@H]1c1nc2ccccc2s1 [Example 1794, [(4R)-4-(1,3-benzothiazol-2-yl)-1,4,6,7-tetrahydroimidazo[4,5-c]pyridin-5-yl]-[5-[1-(2,2,2-trifluoroethyl)pyrazol-4-yl]-1,3,4-oxadiazol-2-yl]methanone] |
| 1000 to 5000 nM | C[C@@H]1CN(C(=O)c2nnc(-c3cnn(C)c3)o2)[C@@H](c2nc3ccccc3s2)c2nc[nH]c21 [Example 1749, ((4R,7R)-4-(benzo[d]thiazol-2-yl)-7-methyl-6,7-dihydro-1H-imidazo[4,5-c]pyridin-5(4H)-yl)(5-(1-methyl-1H-pyrazol-4-yl)-1,3,4-oxadiazol-2-yl)methanone] |
| 1000 to 5000 nM | O=C(C1CN(c2ccc(F)cn2)C1)N1CCc2[nH]cnc2[C@H]1c1nc2ccccc2s1 [Example 1837] |
| < 500 nM | O=C(c1nnc(-c2cnn(C(F)F)c2)o1)N1CCc2[nH]cnc2[C@H]1c1nc2ccccc2s1 [Example 1777] |

same assay, conditions: A375 cells expressing human R408W PAH; 24 hrs with compound; 13C-Tyrosine by LC-MS; average where tested multiple times; read-out: AC50

| Compound | AC50 |
| --- | --- |
| c1ccc2sc(C3c4nc[nH]c4CCN3c3nnc(C4CC4)o3)nc2c1 (centres unmarked) | 1000 to 5000 nM |
| COc1ccc2c(C(=O)N3CCc4[nH]cnc4C3c3nc4ccccc4s3)cnn2c1 (centres unmarked) | 1000 to 5000 nM |
| Cn1nc(C(C)(C)O)cc1C(=O)N1CCc2[nH]cnc2C1c1nc2c(F)cccc2s1 (centres unmarked) | > 5000 nM |
| Cn1cc(-c2cccc(C(=O)N3CCc4[nH]cnc4C3c3nc4ccccc4s3)c2)cn1 (centres unmarked) | > 5000 nM |
| O=C(c1cnn2cccc(F)c12)N1CCc2[nH]cnc2C1c1nc2ccccc2s1 (centres unmarked) | > 5000 nM |
| O=C(c1nnc(N2CC(F)C2)o1)N1CCc2[nH]cnc2C1c1nc2ccccc2s1 (centres unmarked) | 1000 to 5000 nM |
| Cc1nnc(CCC(=O)N2CCc3[nH]cnc3C2c2nc3c(F)cccc3s2)s1 (centres unmarked) | 1000 to 5000 nM |
| O=C(c1ncn2ccccc12)N1CCc2[nH]cnc2C1c1nc2ccc(Br)cc2[nH]1 (centres unmarked) | 1000 to 5000 nM |
| O=C(c1cnn2cc(F)ccc12)N1CCc2[nH]cnc2C1c1nc2ccc(F)cc2s1 (centres unmarked) | 1000 to 5000 nM |
| O=C(Cc1cncs1)N1CCc2[nH]cnc2[C@H]1c1nc2ccccc2[nH]1 [(S)-1-(4-(1H-benzo[d]imidazol-2-yl)-6,7-dihydro-1H-imidazo[4,5-c]pyridin-5(4H)-yl)-2-(thiazol-5-yl)ethanone] | 1000 to 5000 nM |
| O=C(CC1CC1)N1CCc2[nH]cnc2C1c1nc2c(F)cccc2s1 (centres unmarked) | 1000 to 5000 nM |
| Cn1nc(-c2ccccn2)cc1C(=O)N1CCc2[nH]cnc2C1c1nc2c(F)cccc2s1 (centres unmarked) | > 5000 nM |
| O=C(c1nccs1)N1CCc2[nH]cnc2C1c1nc2ccc(F)cc2[nH]1 (centres unmarked) | > 5000 nM |
| O=C(c1cnn2cc(Cl)ccc12)N1CCc2[nH]cnc2C1c1nc2ccc(Cl)cc2[nH]1 (centres unmarked) | > 5000 nM |
| Cc1nc(C(=O)N2CCc3[nH]cnc3C2c2nc3c(F)cccc3s2)n(C)n1 (centres unmarked) | 1000 to 5000 nM |
